One test has as its system HCT116 cells. Description: Anchorage-independent growth assay (soft agar / Matrigel). The class given is cell-based, human. The following applies: for effect on anchorage-independent growth: HCT116; for IC50: Homo sapiens, HCT-116, 168 h, HCT116, 3-dimensional growth, 1 week. The method, then:
In order to evaluate the effect of the compounds on the capacity of tumor cells to grow without anchorage, HCT116 cells were seeded either in agar or in Matrigel (BD, France). For 3D growth experiment in soft agar in 24-well plates, 5.10^3 HCT116 cells were resuspended in 250 μl of complete medium containing 0.3% soft-agar (Difco) and different concentrations of compound (0.1, 1, 10, 17.5, 25 and 50 μM). Cells were then poured on a solidified layer of medium containing 0.5% of soft-agar plus the compound at the same concentration than in the upper layer. Cells were incubated at 37° C. for 1 week before they were analysed using a phase contrast microscope (Nikon). For 3D growth experiment in Matrigel, 10^4 HCT116 cells were resuspended in 300 μl of complete medium containing 5 mg/ml Matrigel (BD, France) and different concentrations of compound (0.1, 1, 10, 17.5, 25 and 50 μM), and poured in 24-well plates. After solidification at 37° C. for 15 min., complete medium containing the compound was added to each well. Cells were incubated for 1 week before they were collected using Matrisperse (BD, France) according to the manufacturer's instructions. After recovery, alive cells were counted with trypan blue exclusion.

Another test has as its system MRC-5. The experiment in a line: Cytotoxicity assay (MTT), 6 days. Type of test: cell-based. The settings on record: Homo sapiens, MRC5, 144 h, 6 days of treatment, read-out: Toxicity 6d (IC 50, μM) MRC-5. Put shortly: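 5.10^3 or 2.10^4 cells/well plated, dosed next day (0, 1, 10, 17.5, 25, 50 μM; DMSO 1%). 6 d exposure → MTT 0.5 mg/ml, 3 h 37° C → DMSO solubilization → A550. IC50 calc., n=3.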

The next test relates to MDA-MB-231 cells. The experiment in a line: Migration assay (Boyden chamber, non-coated filters). The class given is cell-based, human. The following applies: for Migration: MDA-MB-231, Boyden chamber. The essentials:
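MDA-MB-231 cells were pretreated overnight with compound (1, 10, 17.5, 25 and 50 μM), then 10^5 cells placed in the upper chamber in serum-free medium with 0.1% BSA plus compound; lower chamber held 10% FBS plus compound as chemoattractant. After 6 hours at 37° C on non-coated filters, migrated underside cells were stained and counted by microscopy.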

In the next test the test system is Ras. Description: Ras-dependant signaling pathway analysis (reporter system). On the set-up: key: −: no effect of the compound was observed; +: an effect of the compound was observed. Type of test: cell-based. Put shortly:
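Ras and Rac signalling were measured with reporter systems. For colony formation, NIH3T3 cells were transfected with RasV12 or RacV12 plus neomycin plasmids, then grown 2-3 weeks in 400 μg/ml geneticin with compound at 1, 10, 17.5, 25 or 50 μM. Fuchsin-stained colonies of ≥50 cells were counted.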

A further test deals with cell architecture. The experiment in a line: Cell architecture modification, phase contrast. Type of test: cell-based. Also on record: key: −: no effect of the compound was observed; +: an effect of the compound was observed.
Another test concerns MDA231. Description: Cytoskeleton analysis, actin staining (FITC-phalloidin). Type of test: cell-based, human. Put shortly: (§1)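 Subconfluent cells on coverslips were exposed to compound at 1, 10, 17.5, 25 or 50 μM, or to vehicle, for 24 h. They were then formaldehyde-fixed, Triton-permeabilized and blocked. Actin was stained with 0.5 μg/ml FITC-phalloidin for 1 h and imaged by inverted fluorescence microscopy.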

Another test has as its system HCT116. The test is described as above. Type of test: cell-based, human. The following applies: HCT116 tumor cells. Put shortly:
as §1

The next test deals with H460. The test is described as above. The settings on record: H460 tumor cells. The class given is cell-based, human. Put shortly:
as §1

For `CCCc1c(OCCCCCOc2coc(CO)cc2=O)ccc(Cl)c1Cl` [EH22900, 5-[5-(3,4-Dichloro-2-propylphenyloxy)pentyloxy]-2-(hydroxymethyl)-4H-pyran-4-one], in the test on HCT116 cells, the “effect on anchorage-independent growth” value is recorded as “strongest effect” and the IC50 was less than 1 µM. Besides, in the test on MRC-5, the IC50 was 25 µM. Further, in the test on MDA-MB-231 cells, the “concentration at which inhibition of serum-induced migration was observed” value was 25 µM and the Migration entry is listed as “inhibition”. The “Small GTPases activities Ras” value in the test with Ras was “−”. For the same compound, in the test with cell architecture, the “Cell architecture modification phase contrast” value is given as “+”. For the same compound, in the test with MDA231, the MDA-MB-231 spreading entry is “increased”. The “Cell architecture modification actin staining MDA231” value in the test with MDA231 (24 h treatment) is “cell spreading”.
On to `C/C=C/c1oc(CO)cc(=O)c1OCCCCCOc1ccc(Cl)c(Cl)c1CCC` [EH31101, (E)-3-[5-(3,4-Dichloro-2-propylphenyloxy)pentyloxy]-6-(hydroxymethyl)-2-(propen-1-yl)-4H-pyran-4-one], for which, in the test on HCT116 cells, the “effect on anchorage-independent growth” value was “significant, although less severe, effect” and the IC50 was less than 1 µM. Moreover, in the test on MDA-MB-231 cells, the “concentration at which inhibition of serum-induced migration was observed” value is 10 µM and the Migration entry is listed as “no effect”. Also, the “Small GTPases activities Ras” value in the test on Ras was “−”. In the test with cell architecture, the “Cell architecture modification phase contrast” value is recorded as “+”. Further, the “concentration at which dose-dependant increase in spreading and disruption of cell-to-cell junctions was observed” value in the test on HCT116 was found to be 10 µM. Moreover, in the test with H460, the “concentration at which dose-dependant increase in spreading and disruption of cell-to-cell junctions was observed” value worked out at 25 µM.

The values are drawn from patent US20050054629A1, “Compounds and methods of treating cell proliferative diseases” (priority 2002, published 2005).
